Results as given in patent US20230107216A1, “PANTETHEINE DERIVATIVES AND USES THEREOF” (Comet Therapeutics, Inc., priority 2018, published 2023).
Where two headings read alike, the source gives them in different places.

Key:
Assay type in all cases: cell-based
[1] = system: Methylmalonic Acidemia (MMA) primary fibroblasts Tsi 5224; assay: Mitochondrial respiration, XFe96 Extracellular Flux Analyzer (OCR/ECAR), MMA fibroblasts Tsi 5224; conditions: Homo sapiens, Fibroblast, MMA Tsi 5224, assay condition A (10 mM glucose, 2 mM L-glutamine, 1 mM pyruvate, 10% FBS), read-out: Increase in Maximal Respiratory Capacity AUC;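 further: relative to vehicle DMSO control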
Description: The effect of the compounds of the present disclosure on mitochondrial respiration was measured with a XFe96 Extracellular Flux Analyzer (Seahorse Bioscience, Agilent Technologies) and Oxygen consumption Rate (OCR) and Extracellular acidification rate (ECAR) determined.
Cell culture and treatments. Primary adherent fibroblasts were cultured in minimum essential medium (MEM) (Gibco, 25030081) supplemented with 2 mM L-Glutamine (Gibco, 25030081), 15% fetal bovine serum (FBS) (Gibco, 26400044) and 1% penicillin/streptomycin (Gibco, 5140122) at 37° C. and 5% CO2. Cells were collected for either passaging or experiment at ˜70-80% confluence. Cells were obtained by trypsinization and seeded at 20000 cells/well in cell culture microplates (Seahorse Bioscience, 101085-004) and allowed to adhere for 16 hours in culture media.
By profiling different primary cells and/or optimizing their culture media or environmental components one can select cell lines and/or conditions that are appropriate for the biological or disease model. In the present example, 24 hours prior to OCR and ECAR profiling, media was changed to Dulbecco's Modified Eagle Medium (DMEM, Agilent Seahorse 103575-100) with the appropriate supplements for the different primary cells (10 mM glucose, 2 mM L-glutamine, 1 mM pyruvate, 10% FBS; 1 mM glucose, 2 mM L-glutamine, 1 mM pyruvate, 10% FBS; 10 mM glucose, 10% FBS; 5 mM glucose 10% FBS; 1 mM glucose 10% FBS). Cells used in this example were: Propionic Acidemia (PA) (GM00371, GM03590 Coriell Institute for Medical Research, Tsi 6337, Tsi 4626, Tsi 3618 Trans-Hit Bio), Methylmalonic Acidemia (MMA) (GM01673, Coriell Institute for Medical Research, Tsi 5224 Trans-Hit Bio), Branched chain ketoacid dehydrogenase kinase (BCKDK) (GM00612, GM00649 Coriell Institute for Medical Research), Subnormal activation of pyruvate dehydrogenase complex (PDH) (GM01503 Coriell Institute for Medical Research), Very long-chain acyl-CoA dehydrogenase (VLCAD) (GM17475), Leigh Syndrome (LS) (GM03672, GM13411 Coriell Institute for Medical Research), Pyruvate Carboxylase Deficiency (PC) (GM00444 Coriell Institute for Medical Research), Glutaric Acidemia-I (GA) (GM10653), Friedreich's Ataxia (FXN) (GM04078 Coriell Institute for Medical Research, Huntington's disease (HD) (GM21756 Coriell Institute for Medical Research), Ornithine Transcarbamylase Deficiency (OTC) (GM12756 Coriell Institute for Medical Research), Kearns-Sayre Syndrome (KSS) (GM06225 Coriell Institute for Medical Research).
One hour before the assay, the cells were washed with freshly prepared unbuffered serum free-Seahorse XF Assay medium (Seahorse Bioscience, North America, USA, 103575-100) with the same supplements as for the previous 24 hour incubation.
After baseline measurements of OCR, cells were challenged with compounds of the present disclosure at different concentrations (10 to 50 μM) or vehicle (DMSO, 0.1%) and a post-compound baseline was recorded. OCR was measured after sequentially adding to each well 1 μg/ml oligomycin (inhibitor of ATP synthase Sigma-Aldrich, 753531), then maximal OCR was determined with carbonyl cyanide 4-(trifluoromethoxy) phenylhydrazone (FCCP, Sigma-Aldrich, C2920), (uncoupler of oxidative phosphorylation) and 0.5 μM of rotenone (Sigma-Aldrich, R8875) plus antimycin A (Sigma-Aldrich, A8674) (inhibitors of mitochondrial complex I and III) for determination of rotenone-antimycin insensitive respiration together with Hoechst for nuclear staining in situ when normalized to cell counts. After the analysis and nuclear staining, the XFp microplate was transferred to the Cytation 5, and the nuclear images were captured, the individual nuclei were identified and counted by BioTek Gen5 software. Data were expressed as pmol of O2 per minute and normalized by nuclear staining and baselined to pre-compound addition.
Assay conditions were as stated below.
Assay specifics on assay conditions are indicated below when readouts were normalized to cell counts. […]

HepG2 cells [2] = assay: Glucose uptake (Glucose Uptake-Glo); conditions: Homo sapiens, read-out: % increase in Glucose Uptake
[3] = system: Propionic Acidemia (PA) primary fibroblasts GM00371; assay: Mitochondrial respiration, XFe96 Extracellular Flux Analyzer (OCR/ECAR), PA fibroblasts GM00371; conditions: Homo sapiens, Fibroblast
HepG2 cells [4] = assay: Mitochondrial membrane potential (MITO-ID MP detection Kit); conditions: Homo sapiens, 168 h, 50 uM, 7 days, read-out: % decrease in Mitochondrial Membrane Potential
Description: HepG2 cells (ATCC, HB-8065) were cultured (5% CO2 at 37° C.) and plated in Poly-D-Lysine 384-Well plate (Corning, 356663) at a density of 160000 cells/mL in 50 μL/well. Culture and assay media consisted of DMEM (Gibco, 11995-065) supplemented with 1% Penicillin-Streptomycin and 10% FBS (Hyclone, SV30087.03).
MITO-ID® MP detection Kit (ENZ-51018) was used and manufacturer instructions followed. Cells were allowed to settle for 30 min at room temperature and further incubated overnight (37° C. and 5% CO2) for adherence. Next day, test compounds (50-10 μM) and vehicle DMSO (0.2%) were added at the recommended volumes to the 384-well plate for 7 days without media change using a Tecan compound dispenser. All the solutions and wash buffers were prepared and dispensed according to manufacturer's volumes for a 384-well plate format.

Compound | activation at 10 µM (HepG2 cells [2]) | activation at 50 µM (HepG2 cells [2]) | further results
CC(C(=O)O)C(=O)SCCNC(=O)CCNC(=O)[C@H](O)C(C)(C)CO (stereo partly shown) [Compound 393] | ≥ 30% | – | activation at 10 µM [1]: ≥ 10%
CC(=O)SCCNC(=O)CCNC(=O)[C@H](O)C(C)(C)COC(=O)OCC[N+](C)(C)C [Compound 503, [2-([[(3R)-3-[(2-[[2-(acetylsulfanyl)ethyl]carbamoyl]ethyl)carbamoyl]-3-hydroxy-2,2-dimethylpropoxy]carbonyl]oxy)ethyl]trimethylazanium] | – | ≥ 20% | activation at 50 µM ([3]; assay condition A (10 mM glucose, 2 mM L-glutamine, 1 mM pyruvate, 10% FBS), read-out: Increase in Maximal Respiratory Capacity AUC): ≥ 10%
COC(=O)CCC(=O)SCCNC(=O)CCNC(=O)[C@H](OC(C)=O)C(C)(C)COC(C)=O [Compound 214, methyl 4-[(2-[3-[(2R)-2,4-bis(acetyloxy)-3,3-dimethylbutanamido]propanamido]ethyl)sulfanyl]-4-oxobutanoate] | ≥ 20% | – | activation at 50 µM ([3]; assay condition A (10 mM glucose, 2 mM L-glutamine, 1 mM pyruvate, 10% FBS), read-out: Increase in Spare Capacity AUC): ≥ 50%; activation at 50 µM ([3]; assay condition D (1 mM glucose, 10% FBS), read-out: Increase in Spare Capacity AUC): ≥ 10%
CC(=O)OCC(C)(C)[C@@H](O)C(=O)NCCC(=O)NCCSC(=O)/C=C/C(=O)O [Compound 144, (2E)-4-[(2-[3-[(2R)-4-(acetyloxy)-2-hydroxy-3,3-dimethylbutanamido]propanamido]ethyl)sulfanyl]-4-oxobut-2-enoic acid] | – | ≥ 30% | –
C[C@H](O)CC(=O)SCCNC(=O)CCNC(=O)[C@H](O)C(C)(C)CO [Compound 1246, (2R)-2,4-dihydroxy-N-{2-[(2-{[(3S)-3-hydroxybutanoyl]sulfanyl}ethyl)carbamoyl]ethyl}-3,3-dimethylbutanamide] | – | – | inhibition at 50 µM (HepG2 cells [4]): > 50%
CC(=O)O[C@@H](C(=O)NCCC(=O)NCCSC(=O)CCC(=O)O)C(C)(C)CO [Compound 211, 4-[(2-[3-[(2R)-2-(acetyloxy)-4-hydroxy-3,3-dimethylbutanamido]propanamido]ethyl)sulfanyl]-4-oxobutanoic acid] | – | ≥ 30% | –
CC(=O)SCCNC(=O)CCNC(=O)[C@H](O)C(C)(C)CO [Compound 1241, (R)—S-(2-(3-(2,4-dihydroxy-3,3-dimethylbutanamido)propanamido)ethyl) ethanethioate] | ≥ 30% | – | –
CC(C)(C)OC(=O)NCC(=O)OCC(C)(C)[C@@H](O)C(=O)NCCC(=O)NCCS [Compound 1274, (3R)-3-hydroxy-2,2-dimethyl-3-([2-[(2-sulfanylethyl)carbamoyl]ethyl]carbamoyl)propyl 2-[(tert-butoxycarbonyl)amino]acetate] | – | ≥ 30% | –
C[C@H](NC(=O)OC(C)(C)C)C(=O)OCC(C)(C)[C@@H](O)C(=O)NCCC(=O)NCCSSCCNC(=O)CCNC(=O)[C@H](O)C(C)(C)COC(=O)[C@H](C)NC(=O)OC(C)(C)C [Compound 1277, (3R)-3-[[2-([2-[(2-[3-[(2R)-4-[[(2S)-2-[(tert-butoxycarbonyl)amino]propanoyl]oxy]-2-hydroxy-3,3-dimethylbutanamido]propanamido]ethyl)disulfanyl]ethyl]carbamoyl)ethyl]carbamoyl]-3-hydroxy-2,2-dimethylpropyl (2S)-2-[(tert-butoxycarbonyl)amino]propanoate] | ≥ 10% | – | –
CC(=O)OCC(C)(C)[C@@H](OC(C)=O)C(=O)NCCC(=O)NCCS [Compound 1263, (1R)-3-(acetyloxy)-2,2-dimethyl-1-([2-[(2-sulfanylethyl)carbamoyl]ethyl]carbamoyl)propyl acetate] | – | ≥ 30% | –
CC(=O)SCCNC(=O)CCNC(=O)[C@H](O)C(C)(C)COC(=O)CNC(=O)OC(C)(C)C [Compound 1275, (3R)-3-[(2-[[2-(acetylsulfanyl)ethyl]carbamoyl]ethyl)carbamoyl]-3-hydroxy-2,2-dimethylpropyl 2-[(tert-butoxycarbonyl)amino]acetate] | ≥ 20% | – | –
CC(=O)NCC(=O)O[C@@H](C(=O)NCCC(=O)NCCSC(=O)CCC(=O)O)C(C)(C)CO [Compound 1296, 4-[(2-[3-[(2R)-2-[(2-acetamidoacetyl)oxy]-4-hydroxy-3,3-dimethylbutanamido]propanamido]ethyl)sulfanyl]-4-oxobutanoic acid] | ≥ 10% | – | activation at 10 µM ([3]; assay condition D (1 mM glucose, 10% FBS), 10 μM, read-out: Increase in Spare Capacity AUC): ≥ 30%
C[C@H](NC(=O)OC(C)(C)C)C(=O)OCC(C)(C)[C@@H](O)C(=O)NCCC(=O)NCCS [Compound 1278, (3R)-3-hydroxy-2,2-dimethyl-3-([2-[(2-sulfanylethyl)carbamoyl]ethyl]carbamoyl)propyl (2S)-2-[(tert-butoxycarbonyl)amino]propanoate] | ≥ 30% | – | –
CCC(=O)OCC(C)(C)[C@@H](O)C(=O)NCCC(=O)NCCSSCCNC(=O)CCNC(=O)[C@H](O)C(C)(C)COC(=O)CC [Compound 1271, (3R)-3-hydroxy-3-[[2-([2-[(2-[3-[(2R)-2-hydroxy-3,3-dimethyl-4-(propanoyloxy)butanamido]propanamido]ethyl)disulfanyl]ethyl]carbamoyl)ethyl]carbamoyl]-2,2-dimethylpropyl propanoate] | ≥ 10% | – | –
COC(=O)CCC1(CC(=O)SCCNC(=O)CCNC(=O)[C@H](O)C(C)(C)COC(C)=O)OCC(C)(C)CO1 [Compound 1268, methyl 3-(2-[2-[(2-[3-[(2R)-4-(acetyloxy)-2-hydroxy-3,3-dimethylbu-tanamido]propanamido]ethyl)sulfanyl]-2-oxoethyl]-5,5-dimethyl-1,3-dioxan-2-yl)propanoate] | – | ≥ 30% | –
CC(=O)SCCNC(=O)CCNC(=O)[C@H](O)C(C)(C)COC(=O)O[C@H](CC(=O)[O-])C[N+](C)(C)C [Compound 183, (12R,18R)-12-hydroxy-13,13-dimethyl-2,7,11,16-tetraoxo-18-((trimethylammonio)methyl)-15,17-dioxa-3-thia-6,10-diazaicosan-20-oate] | ≥ 30% | – | activation at 10 µM [1]: ≥ 10%
